Data on 61 compounds can be found in US7612065B2, “Inhibitors of c-JUN N-terminal kinases (JNK)” (priority 2007, dated 2009).

The structures appear in SMILES notation.

The experiment deals with T1, JNK3 (Homo sapiens, UniProt P53779).
T1 construct: One such construct encodes amino acid residues Ser40-Glu402 of JNK3α1 and is preceded by Met and Gly residues; Met-Gly (initiation methionine plus glycine added for the NcoI site); made in house; host or cells: E. coli BL21 (DE3)
The experiment in a line: JNK inhibition assay: spectrophotometric coupled-enzyme assay with activated JNK3. It is filed as biochemical. The conditions noted are these: activated JNK3 10 nM, 10 μM ATP, 200 μM EGF receptor peptide, 30° C., competitive inhibition model. From the text: A BLAST search of the EST database using the published JNK3α1 cDNA as a query identified an EST clone (#632588) that contained the entire coding sequence for human JNK3α1. Polymerase chain reactions (PCR) using pfu polymerase (Strategene) were used to introduce restriction sites into the cDNA for cloning into the pET-15B expression vector at the NcoI and BamHI sites. The protein was expressed in E. coli. […] This truncation corresponds to Ser 2 of JNK1 and JNK2 proteins, and is preceded by a methionine (initiation) and a glycine residue. The glycine residue was added in order to introduce an NcoI site for cloning into the expression vector. In addition, systematic C-terminal truncations were performed by PCR to identify a construct that give rise to diffraction-quality crystals.
5 mg of JNK3 was diluted to 0.5 mg/ml in 50 mM HEPES buffer, pH 7.5, containing 100 mM NaCl, 5 mM DTT, 20 mM MgCl2 and 1 mM ATP. GST-MKK7(DD) was added at a molar ratio of 1:2.5 GST-MKK7:JNK3. After incubation for 30 minutes at 25° C., the reaction mixture was concentrated 5-fold by ultrafiltration in a Centriprep-30 (Amicon, Beverly, Mass.), diluted to 10 ml and an additional 1 mM ATP added. This procedure was repeated three times to remove ADP and replenish ATP. The final addition of ATP was 5 mM and the mixture incubated overnight at 4° C.
The activated JNK3/GST-MKK7(DD) reaction mixture was exchanged into 50 mM HEPES buffer, pH 7.5, containing 5 mM DTT and 5% glycerol (w/v) by dialysis or ultrafiltration. The reaction mixture was adjusted to 1.1 M potassium phosphate, pH 7.5, and purified by hydrophobic interaction chromatography (at 25° C.) using a Rainin Hydropore column. […] Activated JNK3 (i.e. doubly phosphorylated JNK3) was stored at −70° C. at 0.25-1 mg/ml.
Compounds were assayed for the inhibition of JNK3 by a spectrophotometric coupled-enzyme assay. In this assay, a fixed concentration of activated JNK3 (10 nM) was incubated with various concentrations of a potential inhibitor dissolved in DMSO for 10 minutes at 30° C. in a buffer containing 0.1 M HEPES buffer, pH 7.5, containing 10 mM MgCl2, 2.5 mM phosphoenolpyruvate, 200 μM NADH, 150 μg/mL pyruvate kinase, 50 μg/mL lactate dehydrogenase, and 200 μM EGF receptor peptide. […] The reaction was initiated by the addition of 10 μM ATP and the assay plate is inserted into the spectrophotometer's assay plate compartment that was maintained at 30° C. The decrease of absorbance at 340 nm was monitored as a function of time. The rate data as a function of inhibitor concentration was fitted to competitive inhibition kinetic model to determine the Ki.

T1 sequence (P53779 40-402): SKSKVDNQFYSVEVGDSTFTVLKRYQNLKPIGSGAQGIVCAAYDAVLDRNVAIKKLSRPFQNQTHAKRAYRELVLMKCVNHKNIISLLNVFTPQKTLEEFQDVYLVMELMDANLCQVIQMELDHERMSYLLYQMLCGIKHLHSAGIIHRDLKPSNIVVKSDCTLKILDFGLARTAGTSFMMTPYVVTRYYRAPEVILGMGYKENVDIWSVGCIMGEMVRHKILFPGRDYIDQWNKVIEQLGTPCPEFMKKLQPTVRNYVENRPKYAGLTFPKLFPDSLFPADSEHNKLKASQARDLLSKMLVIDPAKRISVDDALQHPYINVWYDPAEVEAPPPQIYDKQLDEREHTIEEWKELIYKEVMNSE

Take `O=C1/C(=N\O)c2cc(F)ccc2N1Cc1csc(-c2ccc(Cl)cc2)n1` [Compound 86]: the Ki is not below 1 µM.

As to `COc1ccc(CN2C(=O)/C(=N\O)c3cc(C)cc(C)c32)cc1` [Compound 87], the Ki was not below 1 µM.

Consider `Cc1cc(C)c2c(c1)/C(=N/O)C(=O)N2Cc1cccc([N+](=O)[O-])c1` [Compound 88], for which the Ki was not below 1 µM.

For the compound `Cc1cc(C)c2c(c1)/C(=N/O)C(=O)N2Cc1ccccc1C#N` [Compound 89], the Ki was not below 1 µM.

Regarding `COc1ccccc1-c1nc(CN2C(=O)/C(=N\O)c3cc(C)cc(C)c32)no1` [Compound 90], the Ki was not below 1 µM.

In the case of `COc1ccc(-c2nc(CN3C(=O)/C(=N\O)c4cc(C)cc(C)c43)no2)cc1` [Compound 91], the Ki is not below 1 µM.

As to `Cc1cc(C)c2c(c1)/C(=N/O)C(=O)N2Cc1cccc(Oc2ccccc2)c1` [Compound 92], the Ki is not below 1 µM.

As for `Cc1cc(C)c2c(c1)/C(=N/O)C(=O)N2Cc1ccc(S(C)(=O)=O)cc1` [Compound 93], the Ki is not below 1 µM.

For the compound `COc1cc(CN2C(=O)/C(=N\O)c3cc(C)cc(C)c32)cc(OC)c1` [Compound 94], the Ki was not below 1 µM.

As for `Cc1cc(C)c2c(c1)/C(=N/O)C(=O)N2Cc1cc(F)cc2c1OCOC2` [Compound 95], the Ki was not below 1 µM.

Regarding `Cc1cc(C)c2c(c1)/C(=N/O)C(=O)N2Cc1csc(-c2ccc(Cl)cc2)n1` [Compound 96], the inhibitory constant (Ki) is not below 1 µM.

Take `COc1ccc(CN2C(=O)/C(=N\O)c3cc(Cl)cc(C)c32)cc1` [Compound 97]: the Ki is not below 1 µM.

In the case of `Cc1cc(Cl)cc2c1N(Cc1cccc([N+](=O)[O-])c1)C(=O)/C2=N\O` [Compound 98], the inhibition constant (Ki) is less than 1 µM.

For the compound `Cc1cc(Cl)cc2c1N(Cc1ccccc1C#N)C(=O)/C2=N\O` [Compound 99], the Ki is not below 1 µM.

In the case of `Cc1cc(Cl)cc2c1N(Cc1cccc(Oc3ccccc3)c1)C(=O)/C2=N\O` [Compound 100], the Ki was not below 1 µM.

On to `Cc1cc(Cl)cc2c1N(Cc1ccc(S(C)(=O)=O)cc1)C(=O)/C2=N\O` [Compound 101], for which the Ki is not below 1 µM.

Take `COc1cc(CN2C(=O)/C(=N\O)c3cc(Cl)cc(C)c32)cc(OC)c1` [Compound 102]: the Ki is less than 1 µM.

As for `Cc1cc(Cl)cc2c1N(Cc1cc(F)cc3c1OCOC3)C(=O)/C2=N\O` [Compound 103], the Ki was less than 1 µM.

`Cc1cc(Cl)cc2c1N(Cc1ccccn1)C(=O)/C2=N\O` [Compound 104]: the Ki was not below 1 µM.

For `COc1ccc(CN2C(=O)/C(=N\O)c3cc(OC(F)(F)F)ccc32)cc1` [Compound 105], the Ki was not below 1 µM.

For the compound `O=C1/C(=N\O)c2cc(OC(F)(F)F)ccc2N1Cc1cccc([N+](=O)[O-])c1` [Compound 106], the Ki is not below 1 µM.

On to `COc1cc(CN2C(=O)/C(=N\O)c3cc(OC(F)(F)F)ccc32)cc(OC)c1` [Compound 107], for which the Ki was not below 1 µM.

`O=C1/C(=N\O)c2cc(OC(F)(F)F)ccc2N1Cc1cc(F)cc2c1OCOC2` [Compound 108]: the inhibition constant (Ki) is not below 1 µM.

As to `COc1ccc(-c2nc(CN3C(=O)/C(=N\O)c4cc(F)ccc43)no2)cc1` [Compound 109], the Ki is not below 1 µM.

As to `Cc1cc(C)c2c(c1)/C(=N/O)C(=O)N2Cc1ccccn1` [Compound 110], the Ki is not below 1 µM.

As for `Cc1cc(Cl)cc2c1N(Cc1nc3ccccc3[nH]1)C(=O)/C2=N\O` [Compound 111], the Ki was not below 1 µM.

On to `O=C(Nc1ccc2c(c1)/C(=N/O)C(=O)N2Cc1ccccc1)c1ccccc1` [Compound 115], for which the Ki is not below 1 µM.

Take `COc1cccc(C(=O)Nc2ccc3c(c2)/C(=N/O)C(=O)N3Cc2ccccc2)c1` [Compound 120]: the Ki is not below 1 µM.

For `COc1cc(CN2C(=O)/C(=N\O)c3cc(NC(=O)c4cccc(OC)c4)ccc32)cc(OC)c1` [Compound 121], the inhibition constant Ki is not below 1 µM.

`COc1cccc(C(=O)Nc2ccc3c(c2)/C(=N/O)C(=O)N3Cc2cc(F)cc3c2OCOC3)c1` [Compound 122]: the Ki is not below 1 µM.

Turning to `COc1cc(CN2C(=O)/C(=N\O)c3cc(NC(=O)CCc4ccccc4)ccc32)cc(OC)c1` [Compound 131], the Ki is not below 1 µM.

For `O=C(Nc1ccc2c(c1)/C(=N/O)C(=O)N2Cc1ccccc1)c1cccc2ccccc12` [Compound 136], the Ki was not below 1 µM.

Take `Cc1ccc2c(c1)N(Cc1cc(F)cc3c1OCOC3)C(=O)/C2=N\O` [Compound 149]: the Ki was less than 1 µM.

For the compound `COc1cc(CN2C(=O)/C(=N\O)c3ccc(C)cc32)cc(OC)c1` [Compound 150], the Ki is less than 1 µM.

Consider `COc1cc(CN2C(=O)/C(=N\O)c3ccc(Br)cc32)cc(OC)c1` [Compound 151], for which the Ki is less than 1 µM.

With `O=C1/C(=N\O)c2ccc(Br)cc2N1Cc1cc(F)cc2c1OCOC2` [Compound 152], the Ki was less than 1 µM.

Take `O=C1/C(=N\O)c2ccc(-c3ccccc3)cc2N1Cc1cc(F)cc2c1OCOC2` [Compound 153]: the Ki was less than 1 µM.

As to `O=C(O)c1ccc(-c2ccc3c(c2)N(Cc2cc(F)cc4c2OCOC4)C(=O)/C3=N\O)cc1` [Compound 154], the Ki is less than 1 µM.

`COc1cc(CN2C(=O)/C(=N\O)c3ccc(OC)cc32)cc(OC)c1` [Compound 155]: the Ki is less than 1 µM.

As for `COc1ccc2c(c1)N(Cc1cc(F)cc3c1OCOC3)C(=O)/C2=N\O` [Compound 156], the Ki is less than 1 µM.

As for `O=C1/C(=N\O)c2cc(-c3c(F)cccc3F)ccc2N1Cc1ccccc1` [Compound 157], the Ki was not below 1 µM.

For the compound `O=C(CN1C(=O)/C(=N\O)c2cc(Br)ccc21)OCc1ccccc1` [Compound 158], the Ki was not below 1 µM.

On to `CC(C)CN1C(=O)/C(=N\O)c2cc(Br)ccc21` [Compound 159], for which the Ki is not below 1 µM.

For the compound `C=CCCCN1C(=O)/C(=N\O)c2cc(Br)ccc21` [Compound 160], the Ki is not below 1 µM.

In the case of `O=C1c2ccccc2C(=O)N1CCCN1C(=O)/C(=N\O)c2ccc(-c3ccccc3)cc21` [Compound 161], the Ki is not below 1 µM.

Regarding `O=C1/C(=N\O)c2ccc(-c3ccccc3)cc2N1Cc1ccccc1-c1ccccc1` [Compound 162], the inhibition constant (Ki) is not below 1 µM.

For `O=C1/C(=N\O)c2ccc(-c3ccccc3)cc2N1CC1OCCO1` [Compound 163], the Ki was not below 1 µM.

In the case of `COc1cc(CN2C(=O)/C(=N\O)c3ccc(C(F)(F)F)cc32)cc(OC)c1` [Compound 164], the Ki was less than 1 µM.

In the case of `O=C1/C(=N\O)c2ccc(C(F)(F)F)cc2N1Cc1cc(F)cc2c1OCOC2` [Compound 165], the Ki was less than 1 µM.

Regarding `COc1cc(CN2C(=O)/C(=N\O)c3c(C)cc(C)cc32)cc(OC)c1` [Compound 166], the Ki is less than 1 µM.

For the compound `Cc1cc(C)c2c(c1)N(Cc1cc(F)cc3c1OCOC3)C(=O)/C2=N\O` [Compound 167], the inhibition constant (Ki) is less than 1 µM.

Regarding `COc1cccc(-c2ccc3c(c2)N(Cc2cc(=O)oc4cc(OC)ccc24)C(=O)/C3=N\O)c1` [Compound 175], the Ki was not below 1 µM.

On to `COC(=O)c1cccc(CN2C(=O)/C(=N/O)c3ccc(-c4cccc(OC)c4)cc32)c1` [Compound 176], for which the inhibitory constant (Ki) was not below 1 µM.

Regarding `O=C1/C(=N/O)c2ccc(-c3ccsc3)cc2N1CCOc1ccccc1` [Compound 183], the inhibition constant Ki is not below 1 µM.

On to `COc1ccc2c(CN3C(=O)/C(=N/O)c4ccc(-c5ccsc5)cc43)cc(=O)oc2c1` [Compound 184], for which the inhibitory constant (Ki) was not below 1 µM.

In the case of `COC(=O)c1cccc(CN2C(=O)/C(=N/O)c3ccc(-c4ccsc4)cc32)c1` [Compound 185], the inhibition constant (Ki) is not below 1 µM.

As for `COC(=O)CCCN1C(=O)/C(=N/O)c2ccc(-c3ccsc3)cc21` [Compound 186], the Ki is not below 1 µM.

Turning to `O=C1c2ccccc2C(=O)N1CCCN1C(=O)/C(=N/O)c2ccc(CBr)cc21` [Compound 187], the Ki was not below 1 µM.

`COc1ccc2c(CN3C(=O)/C(=N/O)c4ccc(CBr)cc43)cc(=O)oc2c1` [Compound 188]: the Ki is not below 1 µM.

On to `COC(=O)c1cccc(CN2C(=O)/C(=N/O)c3ccc(CBr)cc32)c1` [Compound 189], for which the inhibitory constant (Ki) is less than 1 µM.

With `COC(=O)CCCN1C(=O)/C(=N/O)c2ccc(CBr)cc21` [Compound 190], the Ki was not below 1 µM.
